This note sets out measurements from patent US20250098679A1, “HERBICIDAL PYRIDONE DERIVATIVES” (SYNGENTA CROP PROTECTION AG, priority 2021, published 2025).

Common to all, as to assay type: in vivo
Holding throughout (details): evaluated after 13 days

Test [1] deals with Zea mays (ZEAMX). Briefly: Pre-emergence Test, Zea mays (ZEAMX).
Test [2] relates to Amaranthus retoflexus (AMARE). The test is described as follows: Post-emergence Test, Amaranthus retoflexus (AMARE). Set-up: key to percentage damage caused to the plant, AMARE (five-point scale): 5=81-100%, 4=61-80%, 3=41-60%, 2=21-40%, 1=0-20% damage. In short, it runs like this:
(§1)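 Spray application at 1000 g/ha unless otherwise stated. Damage was scored 13 days later as 1 (0-20%) to 5 (81-100%).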

In test [3] the test system is Setaria faberi (SETFA). Briefly: Post-emergence Test, Setaria faberi (SETFA). More on the design: key to percentage damage caused to the plant, SETFA (five-point scale): 5=81-100%, 4=61-80%, 3=41-60%, 2=21-40%, 1=0-20% damage. In short, it runs like this: as §1
In test [4] the test system is Amaranthus retoflexus (AMARE). The test is described as follows: Pre-emergence Test, Amaranthus retoflexus (AMARE).
Test [5] concerns Amaranthus palmeri (AMAPA). Briefly: Post-emergence Test, Amaranthus palmeri (AMAPA). Set-up: key: 5=81-100%, 4=61-80%, 3=41-60%, 2=21-40%, 1=0-20% damage. In short, it runs like this: as §1
In test [6] the test system is Echinochloa crus-galli (ECHCG). Briefly: Post-emergence Test, Echinochloa crus-galli (ECHCG). More on the design: key to percentage damage caused to the plant, ECHCG (five-point scale): 5=81-100%, 4=61-80%, 3=41-60%, 2=21-40%, 1=0-20% damage. In short, it runs like this:
as §1

The subject of test [7] is Ipomoea hederacea (IPOHE). The test is described as follows: Post-emergence Test, Ipomoea hederacea (IPOHE). More on the design: key to percentage damage caused to the plant, IPOHE (five-point scale): 5=81-100%, 4=61-80%, 3=41-60%, 2=21-40%, 1=0-20% damage. A digest of the protocol:
as §1

For test [8], the system named is Zea mays (ZEAMX). Briefly: Post-emergence Test, Zea mays (ZEAMX). Set-up: key to percentage damage caused to the plant, ZEAMX (five-point scale): 5=81-100%, 4=61-80%, 3=41-60%, 2=21-40%, 1=0-20% damage. A digest of the protocol:
as §1

The test system of test [9] is Amaranthus palmeri (AMAPA). The test is described as follows: Pre-emergence Test, Amaranthus palmeri (AMAPA).
Test [10] has as its system Setaria faberi (SETFA). Briefly: Pre-emergence Test, Setaria faberi (SETFA).
The test system of test [11] is Echinochloa crus-galli (ECHCG). The test is described as follows: Pre-emergence Test, Echinochloa crus-galli (ECHCG).
In test [12] the test system is Ipomoea hederacea (IPOHE). The test is described as follows: Pre-emergence Test, Ipomoea hederacea (IPOHE).

Take `CCn1c(Cn2ccc(C(F)(F)F)n2)cc(=O)c(C(=O)O)c1-c1ccc(Cl)c(C#N)c1` [Compound 128, 2-(4-chloro-3-cyano-phenyl)-1-ethyl-4-oxo-6-[[3-(trifluoromethyl)pyrazol-1-yl]methyl]pyridine-3-carboxylic acid]: the “Pre-emergence Test ZEAMX, percentage damage caused to the plant (five-point scale)” value in the test with Zea mays (ZEAMX) [1] (1000 g/ha) amounted to 0. Also, the “percentage damage caused to the plant, AMARE (five-point scale)” value is 0 in test [2] (250 g/Ha) and 1 (1=0-20%) in [2] (1000 g/ha). The “percentage damage caused to the plant, SETFA (five-point scale)” value in the test on Setaria faberi (SETFA) [3] (250 g/Ha) was 0; in the test on Setaria faberi (SETFA) [3] (1000 g/ha), 3 (3=41-60%). Moreover, in test [4] (1000 g/ha), the “Pre-emergence Test AMARE, percentage damage caused to the plant (five-point scale)” value is listed as 1 (1=0-20%). Also, the “percentage damage caused to the plant, AMAPA (five-point scale)” value in test [5] (250 g/Ha) is on record as 0; in test [5] (1000 g/ha), 1 (1=0-20%). The “percentage damage caused to the plant, ECHCG (five-point scale)” value in test [6] (250 g/Ha) was 1 (1=0-20%); in test [6] (1000 g/ha), 4 (4=61-80%). The “percentage damage caused to the plant, IPOHE (five-point scale)” value in [7] (250 g/Ha) and in test [7] (1000 g/ha) was 1 (1=0-20%) each time. The “percentage damage caused to the plant, ZEAMX (five-point scale)” value in the test on Zea mays (ZEAMX) [8] (250 g/Ha) was 0; in the test on Zea mays (ZEAMX) [8] (1000 g/ha), 1 (1=0-20%). Also, in test [9] (1000 g/ha), the “Pre-emergence Test AMAPA, percentage damage caused to the plant (five-point scale)” value is given as 1 (1=0-20%). Also, the “Pre-emergence Test SETFA, percentage damage caused to the plant (five-point scale)” value in the test on Setaria faberi (SETFA) [10] (1000 g/ha) was 3 (3=41-60%). For the same compound, in [11] (1000 g/ha), the “Pre-emergence Test ECHCG, percentage damage caused to the plant (five-point scale)” value is listed as 1 (1=0-20%). In addition, the “Pre-emergence Test IPOHE, percentage damage caused to the plant (five-point scale)” value in test [12] (1000 g/ha) is 1 (1=0-20%).
Regarding `CCn1c(Cn2ccc(Cl)n2)cc(=O)c(C(=O)O)c1-c1ccc(S(C)(=O)=O)c(Cl)c1` [Compound 130, 2-(3-chloro-4-methylsulfonyl-phenyl)-6-[(3-chloropyrazol-1-yl)methyl]-1-ethyl-4-oxo-pyridine-3-carboxylic acid], the “Pre-emergence Test ZEAMX, percentage damage caused to the plant (five-point scale)” value in the test on Zea mays (ZEAMX) [1] (1000 g/ha) turned out to be 0. In test [2] (1000 g/ha), the “percentage damage caused to the plant, AMARE (five-point scale)” value is given as 1 (1=0-20%). In addition, the “percentage damage caused to the plant, SETFA (five-point scale)” value in the test on Setaria faberi (SETFA) [3] (1000 g/ha) was 1 (1=0-20%). In test [4] (1000 g/ha), the “Pre-emergence Test AMARE, percentage damage caused to the plant (five-point scale)” value is 1 (1=0-20%). Further, in test [5] (1000 g/ha), the “percentage damage caused to the plant, AMAPA (five-point scale)” value was 2 (2=21-40%). Also, the “percentage damage caused to the plant, ECHCG (five-point scale)” value in [6] (1000 g/ha) is given as 0. The “percentage damage caused to the plant, IPOHE (five-point scale)” value in test [7] (1000 g/ha) is reported as 1 (1=0-20%). Moreover, in the test with Zea mays (ZEAMX) [8] (1000 g/ha), the “percentage damage caused to the plant, ZEAMX (five-point scale)” value worked out at 0. Moreover, the “Pre-emergence Test AMAPA, percentage damage caused to the plant (five-point scale)” value in test [9] (1000 g/ha) is 1 (1=0-20%). Besides, the “Pre-emergence Test SETFA, percentage damage caused to the plant (five-point scale)” value with Setaria faberi (SETFA) [10] (1000 g/ha) was 0. Besides, the “Pre-emergence Test ECHCG, percentage damage caused to the plant (five-point scale)” value in [11] (1000 g/ha) was determined as 0. For the same compound, the “Pre-emergence Test IPOHE, percentage damage caused to the plant (five-point scale)” value in test [12] (1000 g/ha) came out at 0.
In the case of `CCn1c(Cn2nc(Cl)cc2Cl)cc(=O)c(C(=O)O)c1-c1ccc(Cl)c(Cl)c1` [Compound 134, 2-(3,4-dichlorophenyl)-6-[(3,5-dichloropyrazol-1-yl)methyl]-1-ethyl-4-oxo-pyridine-3-carboxylic acid], the “Pre-emergence Test ZEAMX, percentage damage caused to the plant (five-point scale)” value is recorded as 0 in the test on Zea mays (ZEAMX) [1] (250 g/Ha (*)) and 4 (4=61-80%) in the test with Zea mays (ZEAMX) [1] (1000 g/ha). The “percentage damage caused to the plant, AMARE (five-point scale)” value in [2] (250 g/Ha) is on record as 2 (2=21-40%); in [2] (1000 g/ha), 4 (4=61-80%). Moreover, the “percentage damage caused to the plant, SETFA (five-point scale)” value in the test with Setaria faberi (SETFA) [3] (250 g/Ha) and in the test with Setaria faberi (SETFA) [3] (1000 g/ha) was 4 (4=61-80%) throughout. In addition, the “Pre-emergence Test AMARE, percentage damage caused to the plant (five-point scale)” value in [4] (250 g/Ha (*)) was 1 (1=0-20%); in test [4] (1000 g/ha), 2 (2=21-40%). The “percentage damage caused to the plant, AMAPA (five-point scale)” value in test [5] (250 g/Ha) is given as 1 (1=0-20%); in test [5] (1000 g/ha), 4 (4=61-80%). Moreover, the “percentage damage caused to the plant, ECHCG (five-point scale)” value was 3 (3=41-60%) in [6] (250 g/Ha) and 4 (4=61-80%) in test [6] (1000 g/ha). The “percentage damage caused to the plant, IPOHE (five-point scale)” value in test [7] (250 g/Ha) is listed as 4 (4=61-80%); in test [7] (1000 g/ha) it was 3 (3=41-60%). For the same compound, the “percentage damage caused to the plant, ZEAMX (five-point scale)” value with Zea mays (ZEAMX) [8] (250 g/Ha) was 2 (2=21-40%); in the test with Zea mays (ZEAMX) [8] (1000 g/ha), 3 (3=41-60%). Also, the “Pre-emergence Test AMAPA, percentage damage caused to the plant (five-point scale)” value in test [9] (250 g/Ha (*)) is 2 (2=21-40%); in test [9] (1000 g/ha), 4 (4=61-80%). The “Pre-emergence Test SETFA, percentage damage caused to the plant (five-point scale)” value in the test on Setaria faberi (SETFA) [10] (250 g/Ha (*)) and in the test with Setaria faberi (SETFA) [10] (1000 g/ha) was 5 (5=81-100%) in each case. In addition, the “Pre-emergence Test ECHCG, percentage damage caused to the plant (five-point scale)” value is 4 (4=61-80%) in test [11] (250 g/Ha (*)) and 5 (5=81-100%) in [11] (1000 g/ha). Further, the “Pre-emergence Test IPOHE, percentage damage caused to the plant (five-point scale)” value is reported as 1 (1=0-20%) in [12] (250 g/Ha (*)) and 4 (4=61-80%) in test [12] (1000 g/ha).
